Assay results: US11548899B2, “Fused 1,4-oxazepines and related analogs as BET bromodomain inhibitors” (THE REGENTS OF THE UNIVERSITY OF MICHIGAN, priority 2016, dated 2023)
“And” between values parts separate entries of the source, which are not always exact repeats. Equal entries are not always repeated. Where two headings read alike, the source gives them in different places.

How the values were obtained:
[1] = tested on: RS4-11; assay: Cell growth inhibition, 4-day proliferation assay, RS4-11; format: cell-based; conditions: read-out: Cell Viability (IC50, μM) RS4-11
Method: (§1) The effect of representative Compounds of the Disclosure on cell viability was determined in a 4-day proliferation assay. Cells were maintained in the appropriate culture medium with 10% FBS at 37° C. and an atmosphere of 5% CO2. All the cell lines were used within three months of thawing fresh vials.
(§2) Cells were seeded in 96-well flat bottom (Corning COSTAR, Corning, N.Y., cat #3595) or white opaque cell culture plates (BD Falcon, cat #353296) at a density of 3,000-10,000 cells/well in 75 μl of culture medium. Compounds were serially diluted in the appropriate medium, and 75 μl of the diluted compounds were added to the appropriate wells of the cell plate. After the addition of compounds, the cells were incubated at 37° C. in an atmosphere of 5% CO2 for 4 days. Cell viability was determined using the CellTiter-Glo® Luminescent Cell Viability Assay Kit (Promega, Madison, Wis.) for leukemia cells and WST (2-(2-methoxy-4-nitrophenyl)-3-(4-nitrophenyl)-5-(2,4-disulfophenyl)-2H-tetrazolium, monosodium salt) Cell Counting-8 Kit (Dojindo Molecular Technologies, Inc., Rockville, Md.) for adhenrent cells according to the manufacturers' instructions. […]
(§3) For CellTiter-Glo assay (suspension cells), 100 μl of CellTiter-Glo® Reagent was added to each well, and then the plates were incubated at room temperature for 10-20 minutes. The luminescent signal was measured using a Tecan Infinite M1000 multimode microplate reader (Tecan, Morrisville, N.C.). The readings were normalized to the DMSO-treated cells and the IC50 was calculated by nonlinear regression (four parameters sigmoid fitted with variable slope, least squares fit, and no constraint) analysis using the GraphPad Prism 5 software. See US 2014/0256706.

[2] = tested on: MOLM-13; assay: Cell growth inhibition, 4-day proliferation assay, MOLM-13; format: cell-based; conditions: read-out: Cell Viability (IC50, μM) MOLM-13
Method: as §1, §2, §3

[3] = biological target: T1, recombinant BRD4 BD1 (Homo sapiens, UniProt O60885); assay: Competitive fluorescence-polarization (FP) binding assay, BRD4 BD1
T1 construct: recombinant BRD4 BD1 and BRD4 BD2 proteins

[4] = biological target: T2, recombinant BRD4 BD2 (Homo sapiens, UniProt O60885); assay: Competitive fluorescence-polarization (FP) binding assay, BRD4 BD2; conditions: protein 6 nM, probe 1.5 nM
T2 construct: recombinant BRD4 BD1 and BRD4 BD2 proteins
Method: Fluorescence Polarization (FP) competitive binding studies were carried out using a FAM labeled fluorescent probe, see Cpd. […] Equilibrium dissociation constants (Kd) values of the fluorescent probe to BRD4 BD1 and BD2 proteins were determined from protein saturation experiments by monitoring the total fluorescence polarization of mixtures composed with the fluorescent probe at a fixed concentration and proteins with increasing concentrations up to full saturation. Serial dilutions of testing proteins were mixed with the fluorescent probe to a final volume of 200 μl in the assay buffer (100 mM phosphate buffer, pH=6.5, 0.01% Triton X-100 (Sigma, 282103) being added right before assays). Final fluorescent probe concentration was 1.5 nM for both proteins. Plates were incubated at room temperature for 30 minutes with gentle shaking to assure equilibrium. FP values in millipolarization units (mP) were measured using the Infinite M-1000 plate reader (Tecan U.S., Research Triangle Park, N.C.) in Microfluor 1 96-well, black, round-bottom plates (Thermo Scientific, Waltham, Mass.) at an excitation wavelength of 485 nm and an emission wavelength of 530 nm.
The IC50 and Ki values of compounds were determined in a competitive binding experiment. […] Mixtures of 10 μl of the tested compounds in assay buffer with 40% Ethylene Glycol and 190 μl of preincubated protein/probe complex solution in the assay buffer (100 mM potassium phosphate, pH 6.5, 0.01% Triton X-100) were added into assay plates which were incubated at room temperature for 30 minutes with gentle shaking. Final concentrations of proteins were 10 and 6 nM in assays for BRD4 BD1 and BD2, respectively. Final probe concentration is 1.5 nM in both assays. […] FP values were measured as described above. IC50 values were determined by nonlinear regression fitting of the competition curves.

[5] = Homo sapiens, RS4-11, 96 h, 4 days incubation, RS4-11 cells
[6] = 4 days incubation, MOLM-13 cells
[7] = Homo sapiens, MOLM-13, 96 h, 4 days incubation, MOLM-13 cells
[8] = FP competitive binding, protein 10 nM, probe 1.5 nM, read-out: IC50 (nM) BRD4 BD1
[9] = 4 days incubation, RS4-11 cells

| SMILES | IC50 [1, 5] | IC50 [2, 7] | IC50 [3, 8] | IC50 [4] | also measured |
| --- | --- | --- | --- | --- | --- |
| Cc1sc2c(c1Cc1ccccc1)COCc1nnc(C)n1-2 [Cpd. No. 4, 3-benzyl-2,9-dimethyl-4H,6H-thieno[2,3-e][1,2,4]triazolo[3,4-c][1,4]oxazepine] | 1.7 µM | 0.8 µM |  |  | IC50 [2, 6]: 0.9 µM |
| Cc1sc2c(c1-c1ccnc3ccccc13)COCc1nnc(C)n1-2 [Cpd. No. 5, 2,9-dimethyl-3-(quinolin-4-yl)-4H,6H-thieno[2,3-e][1,2,4]triazolo[3,4-c][1,4]oxazepine] | > 5 µM |  | 1370 nM | 1070 nM |  |
| Cc1sc2c(c1Nc1ccccc1)COCc1nnc(C)n1-2 [Cpd. No. 6, 2,9-dimethyl-N-phenyl-4H,6H-thieno[2,3-e][1,2,4]triazolo[3,4-c][1,4]oxazepin-3-amine] |  |  | 317 nM and 629 nM | 346 nM and 457 nM | IC50 ([1]; Homo sapiens, RS4-11, 96 h): 4.5 µM; IC50 ([2]; Homo sapiens, MOLM-13, 96 h): > 5 µM |
| CCOC(=O)N1Cc2c(sc(C)c2Cc2ccccc2)-n2c(C)nnc2[C@@H]1C [Cpd. No. 18, ethyl (S)-3-benzyl-2,6,9-trimethyl-4H-thieno[3,2-f][1,2,4]triazolo[4,3-a][1,4]diazepine-5(6H)-carboxylate] |  |  | 532 nM | 601 nM | IC50 ([2]; Homo sapiens, MOLM-13, 96 h): 4.3 µM |
| Cc1sc2c(c1Cc1ccccc1)CN(C)[C@@H](C)c1nnc(C)n1-2 [Cpd. No. 20, (S)-3-benzyl-2,5,6,9-tetramethyl-5,6-dihydro-4H-thieno[3,2-f][1,2,4]triazolo[4,3-a][1,4]diazepine] |  | 1.3 µM | 235 nM and 340 nM | 636 nM and 1210 nM |  |
| C=C(c1ccccc1)c1c(C)sc2c1COCc1nnc(C)n1-2 [Cpd. No. 24, 2,9-dimethyl-3-(1-phenylvinyl)-4H,6H-thieno[2,3-e][1,2,4]triazolo[3,4-c][1,4]oxazepine] |  | 3.4 µM | 491 nM | 492 nM |  |
| Cc1sc2c(c1Cc1ccccc1)CN(CC1CC1)[C@@H](C)c1nnc(C)n1-2 [Cpd. No. 27, (S)-3-benzyl-5-(cyclopropylmethyl)-2,6,9-trimethyl-5,6-dihydro-4H-thieno[3,2-f][1,2,4]triazolo[4,3-a][1,4]diazepine] |  | > 5 µM | 611 nM | 2610 nM |  |
| Cc1sc2c(c1C(C)c1ccccc1)COCc1nnc(C)n1-2 (centres unmarked) [Cpd. No. 28, 2,9-dimethyl-3-(1-phenylethyl)-4H,6H-thieno[2,3-e][1,2,4]triazolo[3,4-c][1,4]oxazepine] |  | 4.7 µM | 772 nM | 749 nM |  |
| Cc1nnc2n1-c1cccc(C(C)c3ccccc3)c1COC2 (centres unmarked) [Cpd. No. 46, 1-methyl-7-(1-phenylethyl)-4,6-dihydrobenzo[e][1,2,4]triazolo[3,4-c][1,4]oxazepine] |  | 2.9 µM | 807 nM | 268 nM |  |
| Cc1nnc2n1-c1cccc(C3(c4ccccc4)CC3)c1COC2 [Cpd. No. 48, 1-methyl-7-(1-phenylcyclopropyl)-4,6-dihydrobenzo[e][1,2,4]triazolo[3,4-c][1,4]oxazepine] |  | 1.4 µM | 454 nM and 696 nM | 71.6 nM and 137 nM |  |
| Cc1nnc2n1-c1cccc(C3=CCCc4ccccc43)c1COC2 [Cpd. No. 49, 7-(3,4-dihydronaphthalen-1-yl)-1-methyl-4,6-dihydrobenzo[e][1,2,4]triazolo[3,4-c][1,4]oxazepine] |  | > 5 µM | 2350 nM and 1820 nM | 271 nM and 175 nM |  |
| Cc1nnc2n1-c1cccc(C3CCCc4ccccc43)c1COC2 (centres unmarked) [Cpd. No. 50, 1-methyl-7-(1,2,3,4-tetrahydronaphthalen-1-yl)-4,6-dihydrobenzo[e][1,2,4]triazolo[3,4-c][1,4]oxazepine] |  | 2.7 µM | 425 nM and 585 nM | 146 nM and 247 nM |  |
| Cc1nnc2n1-c1ccc(C#CCCO)c(Cc3ccccc3)c1COC2 [Cpd. No. 84, 4-(7-benzyl-1-methyl-4,6-dihydrobenzo[e][1,2,4]triazolo[3,4-c][1,4]oxazepin-8-yl)but-3-yn-1-ol] | 1 µM | 0.7 µM |  |  |  |
| Cc1nnc2n1-c1sc(C#Cc3cncn3C)c(Cc3ccccc3)c1COC2 [Cpd. No. 86, 3-benzyl-9-methyl-2-((1-methyl-H-imidazol-5-yl)ethynyl)-4,6-dihydrothieno[2,3-e][1,2,4]triazolo[3,4-c][1,4]oxazepine] | 0.2 µM | 0.14 µM |  |  |  |
| Cc1nnc2n1-c1sc(C#Cc3ccncc3)c(Cc3ccccc3)c1COC2 [Cpd. No. 87, 3-benzyl-9-methyl-2-(pyridin-4-ylethynyl)-4,6-dihydrothieno[2,3-e][1,2,4]triazolo[3,4-c][1,4]oxazepine] | 0.21 µM | 0.14 µM |  |  |  |
| Cc1nnc2n1-c1sc(C#Cc3cccnc3)c(Cc3ccccc3)c1COC2 [Cpd. No. 88, 3-benzyl-9-methyl-2-(pyridin-3-ylethynyl)-4,6-dihydrothieno[2,3-e][1,2,4]triazolo[3,4-c][1,4]oxazepine] |  |  |  |  | IC50 ([1]; Homo sapiens, RS4-11, 96 h): 0.25 µM; IC50 ([2]; Homo sapiens, MOLM-13, 96 h): 0.12 µM |
| Cc1nnc2n1-c1sc(-c3cn[nH]c3)c(Cc3ccccc3)c1COC2 [Cpd. No. 91, 3-benzyl-9-methyl-2-(1H-pyrazol-4-yl)-4H,6H-thieno[2,3-e][1,2,4]triazolo[3,4-c][1,4]oxazepine] | 1.2 µM | 1.2 µM | 153 nM |  |  |
| Cc1nnc2n1-c1sc(-c3cnn(C)c3)c(Cc3ccccc3)c1COC2 [Cpd. No. 92, 3-benzyl-9-methyl-2-(1-methyl-H-pyrazol-4-yl)-4H,6H-thieno[2,3-e][1,2,4]triazolo[3,4-c][1,4]oxazepine] | 1.6 µM | 1.6 µM | 211 nM |  |  |
| Cc1nnc2n1-c1sc(C3CC3)c(Cc3ccccc3)c1COC2 [Cpd. No. 93, 3-benzyl-2-cyclopropyl-9-methyl-4H,6H-thieno[2,3-e][1,2,4]triazolo[3,4-c][1,4]oxazepine] | > 5 µM | > 5 µM |  |  |  |
| Cc1nnc2n1-c1sc(C#CCCO)c(Cc3ccccc3)c1COC2 [Cpd. No. 96, 4-(3-benzyl-9-methyl-4H,6H-thieno[2,3-e][1,2,4]triazolo[3,4-c][1,4]oxazepin-2-yl)but-3-yn-1-ol] | 0.4 µM | 0.3 µM |  |  | IC50 [1, 9]: 0.34 µM; IC50 [2, 6]: 0.25 µM |
| Cc1nnc2n1-c1sc(CCCCO)c(Cc3ccccc3)c1COC2 [Cpd. No. 99, 4-(3-benzyl-9-methyl-4H,6H-thieno[2,3-e][1,2,4]triazolo[3,4-c][1,4]oxazepin-2-yl)butan-1-ol] | 2.2 µM | 2.9 µM |  |  | IC50 ([3]; IC50 (nM) BRD4 BD1): 367 nM |
| Cc1sc2c(c1Cc1cccc(F)c1)COCc1nnc(C)n1-2 [Cpd. No. 100, 3-(3-fluorobenzyl)-2,9-dimethyl-4H,6H-thieno[2,3-e][1,2,4]triazolo[3,4-c][1,4]oxazepine] | 2.3 µM | 2.4 µM | 208 nM |  |  |
| Cc1sc2c(c1Cc1cccc(C#N)c1)COCc1nnc(C)n1-2 [Cpd. No. 101, 3-(3-cyanobenzyl)-2,9-dimethyl-4H,6H-thieno[2,3-e][1,2,4]triazolo[3,4-c][1,4]oxazepine] | 3.6 µM | > 5 µM | 832 nM |  |  |
| Cc1sc2c(c1Cc1ccccc1F)COCc1nnc(C)n1-2 [Cpd. No. 102, 3-(2-fluorobenzyl)-2,9-dimethyl-4H,6H-thieno[2,3-e][1,2,4]triazolo[3,4-c][1,4]oxazepine] | 2.6 µM | 3.9 µM | 222 nM |  |  |
| Cc1sc2c(c1Cn1ccc3ccccc31)COCc1nnc(C)n1-2 [Cpd. No. 106, 3-((1H-indol-1-yl)methyl)-2,9-dimethyl-4H,6H-thieno[2,3-e][1,2,4]triazolo[3,4-c][1,4]oxazepine] | 1.5 µM | 2.6 µM | 283 nM |  |  |
| Cc1nnc2n1-c1sc(C#Cc3cnn(C)c3)c(Cc3ccc(F)cc3)c1COC2 [Cpd. No. 111, 3-(4-fluorobenzyl)-9-methyl-2-((1-methyl-H-pyrazol-4-yl)ethynyl)-4H,6H-thieno[2,3-e][1,2,4]triazolo[3,4-c][1,4]oxazepine] | 0.18 µM |  | 5.4 nM and 10.5 nM and 12.9 nM | 112 nM and 142 nM and 127 nM | IC50 [1, 9]: 0.25 µM |
| Cc1nnc2n1-c1sc(C#CCCO)c(Cc3ccccc3)c1CO[C@H]2C [Cpd. No. 113, (S)-4-(3-benzyl-6,9-dimethyl-4H,6H-thieno[2,3-e][1,2,4]triazolo[3,4-c][1,4]oxazepin-2-yl)but-3-yn-1-ol] | 0.24 µM |  | 26.9 nM and 40 nM | 146 nM and 149 nM | IC50 [1, 9]: 0.45 µM |
